For data set [1] the following is noted: cited from earlier work.
Data set [2] is described as follows: Particle size distribution by laser diffraction, dry powder method (Malvern Mastersizer 2000). To be noted: milled dried product after spherical agglomeration. Format: physicochemical. How it is done:
PSD was determined by laser diffraction-dry powder method with a Malvern Mastersizer 2000 device.

Data set [3] concerns the target T1, human cytochrome P45017α (Homo sapiens, UniProt P05093).
T1 sequence (P05093 1-508): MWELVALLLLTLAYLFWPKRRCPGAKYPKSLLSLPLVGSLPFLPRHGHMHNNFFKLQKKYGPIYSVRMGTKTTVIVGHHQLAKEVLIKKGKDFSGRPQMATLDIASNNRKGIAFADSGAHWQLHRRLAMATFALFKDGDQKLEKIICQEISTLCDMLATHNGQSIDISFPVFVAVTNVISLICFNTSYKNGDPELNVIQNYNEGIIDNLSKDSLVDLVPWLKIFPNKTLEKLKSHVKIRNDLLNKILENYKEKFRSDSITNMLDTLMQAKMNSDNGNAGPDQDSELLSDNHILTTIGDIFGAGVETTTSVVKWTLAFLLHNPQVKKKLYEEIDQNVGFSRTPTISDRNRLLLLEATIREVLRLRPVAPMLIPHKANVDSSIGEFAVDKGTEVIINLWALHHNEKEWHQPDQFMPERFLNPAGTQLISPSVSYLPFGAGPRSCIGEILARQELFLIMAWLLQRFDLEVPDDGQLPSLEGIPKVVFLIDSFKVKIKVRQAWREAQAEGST
The following applies: qualitative statement; cited from earlier work.

Consider six compounds from patent US9920089B2, “Process for producing a solid form of abiraterone acetate” (ZACH SYSTEM, priority 2013, dated 2018).

Structures are written as SMILES.

With `CC(=O)O[C@H]1CC[C@@]2(C)C(=CC[C@@H]3[C@@H]2CC[C@]2(C)C(c4cccnc4)=CC[C@@H]32)C1` [Abiraterone acetate, (3β)-17-(3-pyridinyl)-androsta-5,16-dien-3-yl acetate], the “Solubility in 0.1N HCl solution” value in data set [1] (0.1N HCl solution) is on record as “very slightly soluble”. In addition, the “Solubility in aqueous media” value in data set [1] (aqueous media, pH range 2.0 to 12.9) is recorded as “practically insoluble”. The “Solubility in organic solvents” value in data set [1] (organic solvents) was “soluble to freely soluble”.

Consider `CC(=O)O[C@H]1CC[C@@]2(C)C(=CC[C@@H]3[C@@H]2CC[C@]2(C)C(c4cccnc4)=CC[C@@H]32)C1` [Example 1, abiraterone acetate], for which the “Measured Particle Size Distribution D(0.5)” value in data set [2] turned out to be 4.9 μm.

For the compound `CC(=O)O[C@H]1CC[C@@]2(C)C(=CC[C@@H]3[C@@H]2CC[C@]2(C)C(c4cccnc4)=CC[C@@H]32)C1` [Example 4, abiraterone acetate], in data set [2], the “Measured Particle Size Distribution D(0.5)” value is 6.5 μm.

`CC(=O)O[C@H]1CC[C@@]2(C)C(=CC[C@@H]3[C@@H]2CC[C@]2(C)C(c4cccnc4)=CC[C@@H]32)C1` [Example 3, abiraterone acetate]: the “Measured Particle Size Distribution D(0.5)” value in data set [2] turned out to be 3.7 μm.

On to `CC(=O)O[C@H]1CC[C@@]2(C)C(=CC[C@@H]3[C@@H]2CC[C@]2(C)C(c4cccnc4)=CC[C@@H]32)C1` [Example 2, abiraterone acetate], for which the “Measured Particle Size Distribution D(0.5)” value in data set [2] is recorded as 10.7 μm.

Consider `C[C@]12CC[C@H](O)CC1=CC[C@@H]1[C@@H]2CC[C@]2(C)C(c3cccnc3)=CC[C@@H]12` [Abiraterone, 17-(3-pyridyl)-androsta-5,16-dien-3β-ol], for which the “Inhibition of human cytochrome P45017α” value in data set [3] is listed as “potent inhibitor”.
